Where a name gives a salt, the structure may show the parent alone. Read-outs that look alike come from different tables or passages of the source.
How the values were obtained:
dopamine transporter [1] = target: T1, dopamine transporter (Rattus norvegicus, UniProt P23977); assay: In vitro inhibition of ^3 H-WIN 35428 binding (corpus striatum); set-up: species or system rat (male Wistar)
T1 construct: Corpus striatum from male Wistar rats (150-200 g) is homogenized; from tissue; host or cells: corpus striatum of male Wistar rats
From the text: The compounds of the present invention have been tested for their ability to bind to the dopamine transporter in the following tests for in vitro and in vivo inhibition of ^3 H-WIN 35428.
In vitro inhibition of ^3 H-WIN 35428 binding
Dopamine transporters/uptake sites on nerve terminals presumably function to terminate neuronal signaling by removing dopamine from the synaptic cleft. The activity or presence of the dopamine transporter integral protein can be measured in vitro with synaptosomal uptake of ^3 H-dopamine or membrane binding assays with ^3 H-ligands known to bind to the transporter.
Numerous ligands of several structural types have been reported to bind at the dopamine uptake site, but it remains questionable whether their binding sites are identical to that of cocaine.
Tissue preparation: Preparations are performed at 0°-4° C. unless otherwise indicated. Corpus striatum from male Wistar rats (150-200 g) is homogenized for 5-10 sec in 10 ml NaH2 PO4 (50 mM, pH 7.4) using an Ultra-Turrax homogenizer. The suspension is centrifuged at 27,000×g for 15 min. The supernatant is discarded and the pellet is resuspended in 50 mM NaH2 PO4, pH 7.4 (1000 ml per g of original tissue) and used for binding assays.
Assay: Aliquots of 0.5 ml tissue are added to […] of ^3 H-WIN 35428 (1 nM, final concentration), mixed and incubated for 60 min at 2° C. Non-specific binding is determined using cocaine ([…], final concentration). After incubation the samples are added 5 ml of ice-cold buffer and poured directly onto Whatman GF/C glass fibre filters under suction and immediately washed with 5 ml ice-cold buffer. The amount of radioactivity on the filters is determined by conventional liquid scintillation counting. Specific binding is total binding minus non-specific binding.
25-75% inhibition of specific binding must be obtained, before calculation of an IC50. The test value is given as IC50 (the concentration (μM) of the test substance which inhibits the specific binding of ^3 H-WIN 35428 by 50%).

dopamine transporter [2] = target: T2, dopamine transporter (Mus musculus, UniProt Q61327); assay: In vivo inhibition of ^3 H-WIN 35428 binding (striatum); set-up: from tissue; host or cells: striatum of living female NMRI mice; species or system mice (female NMRI); settings: ip, mice, inhibition of specific ^3 H-WIN 35428 binding in striatum
Protocol: All test substances used are solutions or suspensions prepared in 10% TWEEN 80. Groups of three female NMRI mice (25 g) are injected i.p. with the test substance. […] Tissues are weighed and dissolved for 36 h with 1 ml 2% sodium-laurylsulfat. The solubilized tissue is then added 2 ml of scintillation cocktail, and the amount of radioactivity per mg of tissue is counted by conventional liquid scintillation counting. Groups of untreated mice serves as controls.
The ED50 value is determined from dose response curves.
ED50 =(administered dose, mg/kg)×1/(C0 /Cx -1), where C0 is specific binding in controls and Cx is the specific binding in mice treated with test substance.

[3] = system: immobility time of mice suspended by the tail; assay: Tail Suspension; type: in vivo, mice (female NMRI); settings: Mus musculus, 0.5 h, oral, 30 min before test, dose reducing the immobility to 100 sec
Protocol: A decrease in the immobility time by mice suspended in their tail is seen after systemic administration of central stimulants and by antidepressants (Steru, L., Chermat, R., Thierry, B. & Simon, P. (1985) The tail suspension test: A new method for screening antidepressants in mice. Psychopharmacology 85:367-370.).
Female NMRI mice (20-25 g) habituated to the room (12 hours light/dark) for at least 16 hours and housed 25 per cage are used. The mice are suspended by the tail with adhesive tape to a rod 30 cm above the lab. bench 30 min after an oral administation of vehicle or drug. For the next 6 min the accumulated duration of immobility defined as no movements by the body or extremities (however head movements are not defined as movements) are noted, Six mice per dose are used.
Saline or vehicle treated mice have immobility time scores between 160-180 sec in average. An ED50 -value is calculated by graphical interpolation from at least 3 doses as the dose reducing the immobility to 100 sec.

dopamine transporter [4] = target: T2, dopamine transporter; settings: cited from earlier work
[5] = rat corpus striatum, ^3 H-WIN 35428 1 nM, 60 min at 2° C., read-out: in vitro IC50

T2 sequence (Q61327 whole entry): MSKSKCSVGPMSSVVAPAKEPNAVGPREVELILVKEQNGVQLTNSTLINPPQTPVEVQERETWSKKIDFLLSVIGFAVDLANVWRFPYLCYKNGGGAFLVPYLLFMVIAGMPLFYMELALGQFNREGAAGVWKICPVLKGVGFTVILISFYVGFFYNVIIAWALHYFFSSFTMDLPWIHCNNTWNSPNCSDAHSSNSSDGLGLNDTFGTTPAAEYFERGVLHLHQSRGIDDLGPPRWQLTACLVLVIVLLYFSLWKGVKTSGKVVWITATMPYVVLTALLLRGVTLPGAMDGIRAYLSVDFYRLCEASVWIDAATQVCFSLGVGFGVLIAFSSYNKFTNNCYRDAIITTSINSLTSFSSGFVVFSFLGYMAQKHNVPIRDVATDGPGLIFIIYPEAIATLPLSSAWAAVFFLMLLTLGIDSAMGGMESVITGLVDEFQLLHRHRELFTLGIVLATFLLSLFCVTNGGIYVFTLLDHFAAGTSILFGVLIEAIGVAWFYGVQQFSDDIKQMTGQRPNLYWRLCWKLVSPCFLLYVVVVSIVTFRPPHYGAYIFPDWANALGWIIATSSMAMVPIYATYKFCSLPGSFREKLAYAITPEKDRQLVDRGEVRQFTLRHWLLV
T1 sequence (P23977 whole entry): as the sequence (Q61327 whole entry) above, with P21S, V57A, S194A, R600H, V619L counted along it

| Structure (SMILES) | IC50 (dopamine transporter [1]; [5]) [µM] | ED50 (dopamine transporter [2]) [mg/kg] | ED50 [3] [mg/kg] | further results |
| --- | --- | --- | --- | --- |
| CC(C)CON=C[C@@H]1[C@@H](c2ccc(Cl)c(Cl)c2)C[C@@H]2CC[C@H]1N2C [(1R,2R,3S)-3-(3,4-Dichlorophenyl)tropane-2-O-(2-methylpropyl)-aldoxime hydrochloride] | 0.056 |  |  |  |
| C=CCON=C[C@@H]1[C@@H](c2ccc(Cl)c(Cl)c2)C[C@@H]2CC[C@H]1N2C [(1R,2R,3S)-3-(3,4-Dichlorophenyl)tropane-2-O-(2-propenyl)-aldoxime hydrochloride] | 0.022 |  |  |  |
| C#CCON=C[C@@H]1[C@@H](c2ccc(Cl)c(Cl)c2)C[C@@H]2CC[C@H]1N2C [(1R,2R,3S)-3-(3,4-Dichlorophenyl)tropane-2-O-(2-propynyl)-aldoxime hydrochloride] | 0.019 |  |  |  |
| CN1[C@H]2CC[C@@H]1[C@H](C=NOCC1CC1)[C@@H](c1ccc(Cl)c(Cl)c1)C2 [(1R,2R,3S)-3-(3,4-Dichlorophenyl)tropane-2-O-cyclopropylmethyl-aldoxime hydrochloride] | 0.02 |  |  |  |
| CCOC(=O)CON=C[C@@H]1[C@@H](c2ccc(Cl)c(Cl)c2)C[C@@H]2CC[C@H]1N2C [(1R,2R,3S)-3-(3,4-Dichlorophenyl)tropane-2-O-ethoxycarbonylmethyl-aldoxime,hydrochloride] | 0.024 | > 10 |  |  |
| CN1[C@H]2CC[C@@H]1[C@H](C=NO)[C@@H](c1ccc(Cl)c(Cl)c1)C2 [(1R,2R,3S)-3-(3,4-Dichlorophenyl)tropane-2-aldoxime] |  | 3.8 | 0.41 | IC50 (dopamine transporter [1]): 0.0034 µM |
| CC(C)CON=C[C@@H]1[C@@H](c2ccc(Cl)c(Cl)c2)C[C@@H]2CC[C@H]1N2C [(1R,2R,3S)-3-(3,4-dichlorophenyl)-tropane-2-O-(2-methylpropyl)-aldoxime] |  |  | 0.8 |  |
| C=CCON=C[C@@H]1[C@@H](c2ccc(Cl)c(Cl)c2)C[C@@H]2CC[C@H]1N2C [(1R,2R,3S)-3-(3,4-dichlorophenyl)-tropane-2-O-(2-propenyl)-aldoxime] |  |  | 0.23 |  |
| C#CCON=C[C@@H]1[C@@H](c2ccc(Cl)c(Cl)c2)C[C@@H]2CC[C@H]1N2C [(1R,2R,3S)-3-(3,4-dichlorophenyl)-tropane-2-O-(2-propynyl)-aldoxime] |  |  | 0.04 |  |
| CN1[C@H]2CC[C@@H]1[C@H](C=NOCc1ccccc1)[C@@H](c1ccc(Cl)c(Cl)c1)C2 [(1R,2R,3S)-3-(3,4-dichlorophenyl)-tropane-2-O-benzyl-aldoxime, HCl] | 0.076 | > 10 | 2 |  |
| CN1[C@H]2CC[C@@H]1[C@H](C=NOCC1CC1)[C@@H](c1ccc(Cl)c(Cl)c1)C2 [(1R,2R,3S)-3-(3,4-dichlorophenyl)-tropane-2-O-cyclopropylmethyl-aldoxime] |  |  | 0.7 |  |
| COC(=O)CON=C[C@@H]1[C@@H](c2ccc(Cl)c(Cl)c2)C[C@@H]2CC[C@H]1N2C [(1R,2R,3S)-3-(3,4-dichlorophenyl)tropane-2-O-methoxycarbonylmethyl-aldoxime] |  |  | 0.25 |  |
| CON=C[C@@H]1[C@@H](c2ccc(Cl)cc2)C[C@@H]2CC[C@H]1N2C [(1R,2R,3S)-3-(4-chlorophenyl)tropane-2-O-methylaldoxime hydrochloride] | 0.048 | 1 | 0.43 |  |
| CN1[C@H]2CC[C@@H]1[C@H](C=NO)[C@@H](c1ccc(Cl)cc1)C2 [(1R,2R,3S)-3-(4-chlorophenyl)tropane-2-aldoxime] |  | 1.05 | 0.19 | IC50 (dopamine transporter [1]): 0.013 µM |
| CON=C[C@@H]1[C@@H](c2ccc(C)cc2)C[C@@H]2CC[C@H]1N2C [(1R,2R,3S)-3-(4-methylphenyl)tropane-2-O-methyl-aldoxime hydrochloride] | 0.042 |  |  |  |
| CN1[C@H]2CC[C@@H]1[C@@H](C=NOCc1ccccc1)[C@@H](c1ccc(Cl)c(Cl)c1)C2 [(1R,2S,3S)-3-(3,4-dichlorophenyl)tropane-2-O-benzyl-aldoxime, hydrochloride] |  |  | 0.94 |  |
| CON=C[C@H]1[C@@H](c2ccc(Cl)c(Cl)c2)C[C@@H]2CC[C@H]1N2C [(1R,2S,3S)-3-(3,4-dichlorophenyl)tropane-2-O-methyl-aldoxime] | 0.0018 | 0.37 | 0.4 |  |
| CN1[C@H]2CC[C@@H]1[C@@H](C=NO)[C@@H](c1ccc(Cl)c(Cl)c1)C2 [(1R,2S,3S)-3-(3,4-dichlorophenyl)tropane-2-aldoxime] |  | 0.56 | 0.27 | IC50 (dopamine transporter [1]): 0.002 µM |
| Fc1ccc(C(OCCN2CCN(CCCc3ccccc3)CC2)c2ccc(F)cc2)cc1 [GBR 12909] |  |  |  | prevention of specific binding of ^3 H-WIN 35428 in vivo (dopamine transporter [4]): partly or completely prevented |

Reference: US5736556A, “Tropane-2-aldoxime derivatives as nevro transmitter reuptake inhibitors” (NeuroSearch A/S, priority 1994, dated 1998)
